Patent publication US20250325562A1, “Intravenous Ganaxolone Formulations and Methods of Use in Treating Status Epilepticus and Other Seizure Disorders” (MARINUS PHARMACEUTICALS, INC., priority 2015, published 2025)

Tested on: pilocarpine induced status epilepticus (SE)
Assay: Pilocarpine-induced status epilepticus in rats, cortical EEG power
Format: in vivo, Male Sprague-Dawley rats
Parameters: key to Treatment effect on EEG power vs vehicle, significance: * P < 0.05; ** P < 0.01; *** P < 0.001; **** P < 0.0001; ns = not significant
Protocol: This study was designed to determine the ability of a CAPTISOL-ganaxolone (GNX) formulation administered intravenously (IV) at 12 and 15 mg/kg to inhibit pilocarpine induced status epilepticus (SE). Allopregnanolone (Allo) (15 mg/kg; IV) was also evaluated for comparison. In this study, test drugs were administered either 15 or 60 minutes after onset of SE and compared to vehicle (30% Captisol).
Cortical EEG activity was recorded in rats before and after administration of pilocarpine to induce SE. Animals were pre-treated with LiCl to enhance and improve reliability of seizure induction and scopolamine to reduce peripheral cholinergic side effects of pilocarpine. EEG activity was recorded for 5 h after SE onset, and anticonvulsant activity was assessed by determining changes in EEG power over frequency ranges from 0.3 to 96 Hz.
Male Sprague-Dawley rats were used for the studies. Rats were surgically implanted with EEG electrodes and jugular vein catheters. The mean weight at the time of recording was 321+3 g (269-351 g).
EEG electrodes were surgically implanted in anesthetized rats. Animals were also treated with an anti-inflammatory anaelgesic (RIMADYL, (carprofen)) prior to surgery and a subcutaneous local anesthetic. Stainless steel screw electrodes chronically were implanted in the skull (0-80×¼″, Plastics-One, Roanoke, VA) such that the ends of the screws were flush with the inner skull surface. One electrode was located 3.0 mm anterior to bregma and 2 mm to the left of midline, and the second 4.0 mm posterior to bregma and 2.5 mm to the right of midline. The skull surface around the electrodes was sealed with super glue and dental acrylic, and the EEG electrode lead wires were inserted into a plastic pedestal mounted on the skull using dental acrylic. Wound edges were treated with triple antibiotic cream (bacitracin zinc, neomycin sulfate, polymyxin B sulfate; Walgreens). Following surgery, animals were administered antibiotic (ampicillin, 50 mg/kg IP at 0.4 mL/kg) and also received a chewable dose (˜10 mg) of Rimadyl following surgery. The animals were allowed to recover from EEG surgery for 1 week.
Rats were implanted with jugular-vein catheters (JVC) one week following EEG surgery. Rats were administered an anti-inflammatory/analgesic and then anesthetized and placed in a supine position. An incision was made in the skin on the right ventrolateral aspect of the neck to expose the external jugular vein which was then dissected free of surrounding fascia. A ligature was tied around the vein anteriorly to occlude blood flow returning to the heart. A second ligature was loosely tied around the vein posteriorly to create tension on the vessel during venotomy and catheter insertion. After incising the vein, a PE catheter (3Fr) was inserted into the vein and advanced approximately 30 mm towards the heart, positioning the tip at the junction of the precava and right atrium. After confirming patency of the catheter by blood withdrawal, the posterior ligature was tied off, and the catheter flushed with a “heparin-lock” solution (5 units heparin/ml saline) and plugged with a sterilized stainless steel pin. The catheter was then exteriorized by tunneling through the subcutaneous tissue to exit posterior to the head between the shoulder blades. Lastly, after suturing the catheter to the skin, all wounds were closed using sutures or wound clips. Immediately following surgery, the animals were awakened to assess catheter patency. Animals also received a chewable dose (˜10 mg) of Rimadyl following surgery to minimize pain and inflammation.
Animals were allowed a 1-week recovery time following JVC surgery. Jugular vein catheters were flushed daily with a 0.1 mL of heparin solution (5 units/mL) to maintain patency. On the day of surgery, the flushing solution contained ampicillin sulbactam (50 mg/kg). […]

Question: With `CC(=O)[C@H]1CC[C@H]2[C@@H]3CC[C@H]4C[C@](C)(O)CC[C@]4(C)[C@H]3CC[C@]12C` [Ganaxolone, 3α-hydroxy, 3β-methyl-5α-pregnan-20-one] as the compound, how does the “Treatment effect on EEG power vs vehicle, significance” value (12 mg/kg IV, 60 min post SE onset, 10-30 Hz, 3-5 hrs post drug) read?
Answer: ns

Question: And the “Treatment effect on EEG power vs vehicle, significance” value (12 mg/kg IV, 60 min post SE onset, 10-30 Hz, 15-30 min post drug)?
Answer: ** (** P < 0.01)

Question: What about the “Treatment effect on EEG power vs vehicle, significance” value (12 mg/kg IV, 60 min post SE onset, 10-30 Hz, 30-60 min post drug) of the same compound?
Answer: ** (** P < 0.01)

Question: And the “Treatment effect on EEG power vs vehicle, significance” value (12 mg/kg IV, 60 min post SE onset, 30-50 Hz, 0-15 min. post drug)?
Answer: ns

Question: What about the “Treatment effect on EEG power vs vehicle, significance” value (12 mg/kg IV, 60 min post SE onset, 30-50 Hz, 1-2 hrs post drug) of the same compound?
Answer: ** (** P < 0.01)

Question: What about the “Treatment effect on EEG power vs vehicle, significance” value (12 mg/kg IV, 60 min post SE onset, 30-50 Hz, 2-3 hrs post drug) of the same compound?
Answer: * (* P < 0.05)

Question: And the “Treatment effect on EEG power vs vehicle, significance” value (12 mg/kg IV, 60 min post SE onset, 30-50 Hz, 3-5 hrs post drug)?
Answer: ns

Question: What about the “Treatment effect on EEG power vs vehicle, significance” value (12 mg/kg IV, 60 min post SE onset, 30-50 Hz, 15-30 min post drug) of the same compound?
Answer: ns

Question: What about the “Treatment effect on EEG power vs vehicle, significance” value (12 mg/kg IV, 60 min post SE onset, 30-50 Hz, 30-60 min post drug) of the same compound?
Answer: * (* P < 0.05)

Question: What about the “Treatment effect on EEG power vs vehicle, significance” value (12 mg/kg IV, 60 min post SE onset, 50-70 Hz, 0-15 min. post drug) of the same compound?
Answer: ns

Question: What about the “Treatment effect on EEG power vs vehicle, significance” value (12 mg/kg IV, 60 min post SE onset, 50-70 Hz, 1-2 hrs post drug) of the same compound?
Answer: ** (** P < 0.01)

Question: What about the “Treatment effect on EEG power vs vehicle, significance” value (12 mg/kg IV, 60 min post SE onset, 50-70 Hz, 15-30 min post drug) of the same compound?
Answer: * (* P < 0.05)

Question: And the “Treatment effect on EEG power vs vehicle, significance” value (12 mg/kg IV, 60 min post SE onset, 50-70 Hz, 30-60 min post drug)?
Answer: ** (** P < 0.01)

Question: What about the “Treatment effect on EEG power vs vehicle, significance” value (15 mg/kg IV, 15 min post SE onset, 0-5 Hz, 0-15 min. post drug) of the same compound?
Answer: **** (**** P < 0.0001)

Question: What about the “Treatment effect on EEG power vs vehicle, significance” value (15 mg/kg IV, 15 min post SE onset, 0-5 Hz, 1-2 hrs post drug) of the same compound?
Answer: **** (**** P < 0.0001)

Question: What about the “Treatment effect on EEG power vs vehicle, significance” value (15 mg/kg IV, 15 min post SE onset, 0-5 Hz, 2-3 hrs post drug) of the same compound?
Answer: **** (**** P < 0.0001)

Question: What about the “Treatment effect on EEG power vs vehicle, significance” value (15 mg/kg IV, 15 min post SE onset, 0-5 Hz, 3-5 hrs post drug) of the same compound?
Answer: *** (*** P < 0.001)

Question: And the “Treatment effect on EEG power vs vehicle, significance” value (15 mg/kg IV, 15 min post SE onset, 0-5 Hz, 15-30 min post drug)?
Answer: **** (**** P < 0.0001)

Question: What about the “Treatment effect on EEG power vs vehicle, significance” value (15 mg/kg IV, 15 min post SE onset, 0-5 Hz, 30-60 min post drug) of the same compound?
Answer: **** (**** P < 0.0001)

Question: What about the “Treatment effect on EEG power vs vehicle, significance” value (15 mg/kg IV, 15 min post SE onset, 5-10 Hz, 0-15 min. post drug) of the same compound?
Answer: **** (**** P < 0.0001)

Question: What about the “Treatment effect on EEG power vs vehicle, significance” value (15 mg/kg IV, 15 min post SE onset, 5-10 Hz, 1-2 hrs post drug) of the same compound?
Answer: **** (**** P < 0.0001)

Question: And the “Treatment effect on EEG power vs vehicle, significance” value (15 mg/kg IV, 15 min post SE onset, 5-10 Hz, 2-3 hrs post drug)?
Answer: *** (*** P < 0.001)

Question: And the “Treatment effect on EEG power vs vehicle, significance” value (15 mg/kg IV, 15 min post SE onset, 5-10 Hz, 3-5 hrs post drug)?
Answer: ns

Question: And the “Treatment effect on EEG power vs vehicle, significance” value (15 mg/kg IV, 15 min post SE onset, 5-10 Hz, 15-30 min post drug)?
Answer: **** (**** P < 0.0001)

Question: What about the “Treatment effect on EEG power vs vehicle, significance” value (15 mg/kg IV, 15 min post SE onset, 5-10 Hz, 30-60 min post drug) of the same compound?
Answer: **** (**** P < 0.0001)

Question: And the “Treatment effect on EEG power vs vehicle, significance” value (15 mg/kg IV, 15 min post SE onset, 10-30 Hz, 0-15 min. post drug)?
Answer: **** (**** P < 0.0001)

Question: What about the “Treatment effect on EEG power vs vehicle, significance” value (15 mg/kg IV, 15 min post SE onset, 10-30 Hz, 1-2 hrs post drug) of the same compound?
Answer: ** (** P < 0.01)

Question: And the “Treatment effect on EEG power vs vehicle, significance” value (15 mg/kg IV, 15 min post SE onset, 10-30 Hz, 2-3 hrs post drug)?
Answer: * (* P < 0.05)

Question: What about the “Treatment effect on EEG power vs vehicle, significance” value (15 mg/kg IV, 15 min post SE onset, 10-30 Hz, 3-5 hrs post drug) of the same compound?
Answer: ns

Question: What about the “Treatment effect on EEG power vs vehicle, significance” value (15 mg/kg IV, 15 min post SE onset, 10-30 Hz, 15-30 min post drug) of the same compound?
Answer: **** (**** P < 0.0001)

Question: And the “Treatment effect on EEG power vs vehicle, significance” value (15 mg/kg IV, 15 min post SE onset, 10-30 Hz, 30-60 min post drug)?
Answer: **** (**** P < 0.0001)

Question: What about the “Treatment effect on EEG power vs vehicle, significance” value (15 mg/kg IV, 15 min post SE onset, 30-50 Hz, 0-15 min. post drug) of the same compound?
Answer: *** (*** P < 0.001)

Question: What about the “Treatment effect on EEG power vs vehicle, significance” value (15 mg/kg IV, 15 min post SE onset, 30-50 Hz, 1-2 hrs post drug) of the same compound?
Answer: ** (** P < 0.01)

Question: What about the “Treatment effect on EEG power vs vehicle, significance” value (15 mg/kg IV, 15 min post SE onset, 30-50 Hz, 2-3 hrs post drug) of the same compound?
Answer: ns

Question: And the “Treatment effect on EEG power vs vehicle, significance” value (15 mg/kg IV, 15 min post SE onset, 30-50 Hz, 3-5 hrs post drug)?
Answer: ns

Question: What about the “Treatment effect on EEG power vs vehicle, significance” value (15 mg/kg IV, 15 min post SE onset, 30-50 Hz, 15-30 min post drug) of the same compound?
Answer: *** (*** P < 0.001)

Question: And the “Treatment effect on EEG power vs vehicle, significance” value (15 mg/kg IV, 15 min post SE onset, 30-50 Hz, 30-60 min post drug)?
Answer: *** (*** P < 0.001)

Question: And the “Treatment effect on EEG power vs vehicle, significance” value (15 mg/kg IV, 15 min post SE onset, 50-70 Hz, 0-15 min. post drug)?
Answer: ** (** P < 0.01)

Question: What about the “Treatment effect on EEG power vs vehicle, significance” value (15 mg/kg IV, 15 min post SE onset, 50-70 Hz, 1-2 hrs post drug) of the same compound?
Answer: ** (** P < 0.01)

Question: What about the “Treatment effect on EEG power vs vehicle, significance” value (15 mg/kg IV, 15 min post SE onset, 50-70 Hz, 2-3 hrs post drug) of the same compound?
Answer: ns

Question: And the “Treatment effect on EEG power vs vehicle, significance” value (15 mg/kg IV, 15 min post SE onset, 50-70 Hz, 3-5 hrs post drug)?
Answer: ns

Question: What about the “Treatment effect on EEG power vs vehicle, significance” value (15 mg/kg IV, 15 min post SE onset, 50-70 Hz, 15-30 min post drug) of the same compound?
Answer: ** (** P < 0.01)

Question: What about the “Treatment effect on EEG power vs vehicle, significance” value (15 mg/kg IV, 15 min post SE onset, 50-70 Hz, 30-60 min post drug) of the same compound?
Answer: ** (** P < 0.01)

Question: What about the “Treatment effect on EEG power vs vehicle, significance” value (15 mg/kg IV, 15 min post SE onset, 70-96 Hz, 0-15 min. post drug) of the same compound?
Answer: ** (** P < 0.01)

Question: What about the “Treatment effect on EEG power vs vehicle, significance” value (15 mg/kg IV, 15 min post SE onset, 70-96 Hz, 1-2 hrs post drug) of the same compound?
Answer: ** (** P < 0.01)

Question: And the “Treatment effect on EEG power vs vehicle, significance” value (15 mg/kg IV, 15 min post SE onset, 70-96 Hz, 2-3 hrs post drug)?
Answer: ns

Question: What about the “Treatment effect on EEG power vs vehicle, significance” value (15 mg/kg IV, 15 min post SE onset, 70-96 Hz, 3-5 hrs post drug) of the same compound?
Answer: ns

Question: What about the “Treatment effect on EEG power vs vehicle, significance” value (15 mg/kg IV, 15 min post SE onset, 70-96 Hz, 15-30 min post drug) of the same compound?
Answer: *** (*** P < 0.001)

Question: And the “Treatment effect on EEG power vs vehicle, significance” value (15 mg/kg IV, 15 min post SE onset, 70-96 Hz, 30-60 min post drug)?
Answer: ** (** P < 0.01)

Question: And the “reduction in SE amplitude” value (12 and 15 mg/kg IV)?
Answer: very strong reduction in SE amplitude overall

Question: What about the “EEG power” value (dosed 15 minutes after SE-onset) of the same compound?
Answer: reduced EEG power across all frequency ranges to levels at or below baseline for at up to 5 h

Question: And the “EEG power” value (dosed at 60′ post SE-onset, not below baseline up to 70 Hz)?
Answer: strongly reduced
